≈ marks a conversion by molar mass, not a printed value.
Assays:
Assay type in all cases: cell-based
[1] = tested on: Staphylococcus aureus JC-1; experiment: Minimum inhibitory concentration against Staphylococcus aureus JC-1; details: JC1
[2] = tested on: Pseudomonus aeruginosa GN1036; experiment: Minimum inhibitory concentration against Pseudomonus aeruginosa GN1036; details: Pseudomonas aeruginosa
Escherichia coli JC-2 = experiment: Minimum inhibitory concentration against Escherichia coli JC-2; details: JC2
[3] = tested on: Pseudomonus aeruginsoa Y-1; experiment: Minimum inhibitory concentration against Pseudomonus aeruginsoa Y-1; details: Pseudomonas aeruginosa, Y1
Proteus vulgaris GN-76 = experiment: Minimum inhibitory concentration against Proteus vulgaris GN-76; details: GN76
[4] = tested on: Klebsiella pneumoniae KC-1; experiment: Minimum inhibitory concentration against Klebsiella pneumoniae KC-1; details: KC1

Compound	MIC [1]	MIC [2]	MIC (Escherichia coli JC-2)	MIC [3]	MIC (Proteus vulgaris GN-76)	MIC [4]
CO/N=C(\C(=O)N[C@@H]1C(=O)N2C(C(=O)O)=C(COC(C)=O)CS[C@H]12)c1csc(N)n1 [Cefotaxime, reference compound]	6.25 µg/mL (≈ 13.7 µM)	12.5 µg/mL (≈ 27.4 µM)	0.1 µg/mL (≈ 0.22 µM)	12.5 µg/mL (≈ 27.4 µM)	0.05 µg/mL (≈ 0.11 µM)	
CC(=O)OCC1=C(C(=O)O)N2C(=O)[C@@H](NC(=O)/C(=N\OCC(=O)c3ccc(OC(C)=O)c(OC(C)=O)c3)c3coc(N)n3)[C@H]2SC1 [Example 1, 7β-[2-(2-aminooxazol-4-yl)-2-Z-(3,4-diacetoxybenzoylmethoxyimino)acetamido]cephalosporanic acid]	3.12 µg/mL (≈ 4.73 µM)	0.78 µg/mL (≈ 1.18 µM)	0.78 µg/mL (≈ 1.18 µM)	0.1 µg/mL (≈ 0.152 µM)	1.56 µg/mL (≈ 2.37 µM)	0.2 µg/mL (≈ 0.303 µM)
CC(=O)Oc1ccc(C(=O)CO/N=C(\C(=O)N[C@@H]2C(=O)N3C(C(=O)O)=C(CSc4nnnn4C)CS[C@H]23)c2coc(N)n2)cc1OC(C)=O [Example 2, 7β-[2-(2-aminooxazol-4-yl)-2-Z-(3,4-diacetoxybenzoylmethoxyimino)acetamido]-3-(1-methyl-1H-tetrazol-5-yl)thiomethyl-3-cephem-4-carboxylic acid]	3.12 µg/mL (≈ 4.36 µM)	0.2 µg/mL (≈ 0.279 µM)	0.2 µg/mL (≈ 0.279 µM)	0.05 µg/mL (≈ 0.0699 µM)	1.56 µg/mL (≈ 2.18 µM)	0.05 µg/mL (≈ 0.0699 µM)
CC(=O)Oc1ccc(C(=O)CO/N=C(\C(=O)N[C@@H]2C(=O)N3C(C(=O)O)=C(CSc4nnnn4CC(=O)O)CS[C@H]23)c2coc(N)n2)cc1OC(C)=O [Example 3, 7β-[2-(2-aminooxazol-4-yl)-2-Z-(3,4-diacetoxybenzoylmethoxyimino)]acetamido-3-(1-carboxymethyl-1H-tetrazol-5-yl)thiomethyl-3-cephem-4-carboxylicacid]	12.5 µg/mL (≈ 16.5 µM)	0.2 µg/mL (≈ 0.263 µM)	0.2 µg/mL (≈ 0.263 µM)	< 0.05 µg/mL	1.56 µg/mL (≈ 2.05 µM)	0.05 µg/mL (≈ 0.0658 µM)
CC(=O)OCC1=C(C(=O)O)N2C(=O)[C@@H](NC(=O)/C(=N\OC(=O)c3ccc(OC(C)=O)c(OC(C)=O)c3)c3coc(N)n3)[C@H]2SC1 [Example 4, 7β-[2-(2-aminooxazol-4-yl)-2-Z-(3,4-diacetoxybenzoyloxyimino)acetamido]cephalosporanic acid]	1.56 µg/mL (≈ 2.42 µM)	0.78 µg/mL (≈ 1.21 µM)	0.2 µg/mL (≈ 0.31 µM)	0.1 µg/mL (≈ 0.155 µM)	0.39 µg/mL (≈ 0.604 µM)	0.2 µg/mL (≈ 0.31 µM)
CC(=O)Oc1ccc(C(=O)O/N=C(\C(=O)N[C@@H]2C(=O)N3C(C(=O)O)=C(CSc4nnnn4C)CS[C@H]23)c2coc(N)n2)cc1OC(C)=O [Example 5, 7β-[2-(2-aminooxazol-4-yl)-2-Z-(3,4-diacetoxybenzoyloxyimino)acetamido]-3-(1-methyl-1H-tetrazol-5-yl)thiomethyl-3-cephem-4-carboxylic acid]	1.56 µg/mL (≈ 2.22 µM)	0.39 µg/mL (≈ 0.556 µM)	0.39 µg/mL (≈ 0.556 µM)	0.1 µg/mL (≈ 0.143 µM)	0.39 µg/mL (≈ 0.556 µM)	0.2 µg/mL (≈ 0.285 µM)
CC(=O)Oc1ccc(C(=O)O/N=C(\C(=O)N[C@@H]2C(=O)N3C(C(=O)O)=C(CSc4nnc(C)s4)CS[C@H]23)c2coc(N)n2)cc1OC(C)=O [Example 6, 7β-[2-(2-aminooxazol-4-yl)-2-Z-(3,4-diacetoxybenzoyloxyimino)acetamido]-3-(2-methyl-1,3,4-thiadiazol-5-yl)thiomethyl-3-cephem-4-carboxylic acid]	3.12 µg/mL (≈ 4.35 µM)	0.39 µg/mL (≈ 0.543 µM)	0.2 µg/mL (≈ 0.279 µM)	0.1 µg/mL (≈ 0.139 µM)	0.2 µg/mL (≈ 0.279 µM)	0.05 µg/mL (≈ 0.0697 µM)
CC(=O)Oc1ccc(C(=O)O/N=C(\C(=O)N[C@@H]2C(=O)N3C(C(=O)O)=C(CSc4nnnn4CC(=O)O)CS[C@H]23)c2coc(N)n2)cc1OC(C)=O [Example 7, 7β-[2-(2-aminooxazol-4-yl)-2-Z-(3,4-diacetoxybenzoyloxyimino)acetamido]-3-(1-carboxymethyl-1H-tetrazol-5-yl)thiomethyl-3-cephem-4-carboxylic acid]	12.5 µg/mL (≈ 16.8 µM)	0.05 µg/mL (≈ 0.0671 µM)	0.05 µg/mL (≈ 0.0671 µM)	< 0.05 µg/mL	0.1 µg/mL (≈ 0.134 µM)	< 0.05 µg/mL
CC(=O)Oc1cc(C(=O)O/N=C(\C(=O)N[C@@H]2C(=O)N3C(C(=O)O)=C(CSc4nnnn4C)CS[C@H]23)c2coc(N)n2)cc(OC(C)=O)c1OC(C)=O [Example 8, 7β-[2-(2-aminooxazol-4-yl)-2-Z-(3,4,5-triacetoxybenzoyloxyimino)acetamido]-3-(1-methyl-1H-tetrazol-5-yl)thiomethyl-3-cephem-4-carboxylic acid]	1.56 µg/mL (≈ 2.05 µM)	0.39 µg/mL (≈ 0.513 µM)	0.1 µg/mL (≈ 0.132 µM)	0.1 µg/mL (≈ 0.132 µM)	0.39 µg/mL (≈ 0.513 µM)	0.1 µg/mL (≈ 0.132 µM)
CCOC(=O)Oc1ccc(C(=O)O/N=C(\C(=O)N[C@@H]2C(=O)N3C(C(=O)O)=C(CSc4nnnn4C)CS[C@H]23)c2coc(N)n2)cc1OC(=O)OCC [Example 9, 7β-[2-(2-aminooxazol-4-yl)-2-Z-(3,4-diethoxycarbonyloxybenzoyloxyimino)acetamido]-3-(1-methyl-1H-tetrazol-5-yl)thiomethyl-3-cephem-4-carboxylic acid]	3.12 µg/mL (≈ 4.1 µM)	0.2 µg/mL (≈ 0.263 µM)	0.2 µg/mL (≈ 0.263 µM)	0.05 µg/mL (≈ 0.0656 µM)	0.2 µg/mL (≈ 0.263 µM)	0.05 µg/mL (≈ 0.0656 µM)
CC(=O)Oc1cc(C(=O)O/N=C(\C(=O)N[C@@H]2C(=O)N3C(C(=O)O)=C(CSc4nnnn4CC(=O)O)CS[C@H]23)c2coc(N)n2)cc(OC(C)=O)c1OC(C)=O [Example 10, 7β-[2-(2-aminooxazol-4-yl)-2-Z-(3,4,5-triacetoxybenzoyloxyimino)acetamido]-3-(1-carboxymethyl-1H-tetrazol-5-yl)thiomethyl-3-cephem-4-carboxylic acid]	6.25 µg/mL (≈ 7.78 µM)	0.39 µg/mL (≈ 0.485 µM)	0.05 µg/mL (≈ 0.0622 µM)	0.1 µg/mL (≈ 0.124 µM)	0.05 µg/mL (≈ 0.0622 µM)	0.2 µg/mL (≈ 0.249 µM)
